Results reported in patent publication US20230248626A1, “Compositions Comprising (Bio)-Alkanediols” (Symrise AG, priority 0001, published 2023).
≈ marks a conversion by molar mass, not a printed value. Read-outs that look alike come from different tables or passages of the source. Values belong to the compound of their own block, whether it stands above or below them.

Key:
Assay type in all cases: cell-based
[1] = test system: Aspergillus brasiliensis; assay: MIC and Kull synergy index of 1,2-/2,3-alkanediol mixtures
[2] = test system: Aspergillus niger; assay: MIC test (growth inhibition, 96 well plates, OD)
Description: (§1) The MIC test is a test on growth inhibition. Estimation of Minimum Inhibitory Concentration (MIC) is executed in 96 well plates. Through the comparison of bacterial growth with positive and negative controls via optical density (OD), different concentrations of given test substances are evaluated.
(§2) Bacteria are cultivated under adjusted conditions based on information of the German Collection of Microorganisms and Cell Cultures (DSMZ) and stored in 50% Glycerol prior to use. Afterwards, the following method was applied: Adding growth medium (according to microorganism) to each well of the microplate. Adding the test-substances in different concentrations, positive controls (water controls only with medium) and negative controls (benchmarks according to organism). Adding the microorganism in a concentration of 10^6 CFU/ml (CFU=colony forming units). Incubation of the microplates at appropriate conditions.
(§3) According to resulting growth, substance concentrations are labelled either as inhibiting or not and MIC is defined as the lowest concentration where a complete growth inhibition is visible. Experiments at concentration limits (highest concentration labelled as growth and lowest concentration labelled as inhibiting) are performed at least twice.

[3] = test system: Candida albicans; assay: MIC test (growth inhibition, 96 well plates, OD); conditions: read-out: Minimum Inhibitory Concentration (MIC)
Description: as §1, §2, §3

[4] = test system: Anaerococcus octavius; assay: MIC test (growth inhibition, 96 well plates, OD)
Description: as §1, §2, §3

[5] = test system: Staphylococcus epidermidis; assay: MIC test (growth inhibition, 96 well plates, OD)
Description: as §1, §2, §3

[6] = test system: Staphylococcus aureus; assay: MIC test (growth inhibition, 96 well plates, OD); conditions: read-out: Minimum Inhibitory Concentration (MIC)
Description: as §1, §2, §3

[7] = test system: Propionibacterium acnes; assay: MIC test (growth inhibition, 96 well plates, OD); conditions: Cutibacterium acnes; read-out: Minimum Inhibitory Concentration (MIC)
Description: as §1, §2, §3

[8] = test system: Escherichia coli; assay: MIC test (growth inhibition, 96 well plates, OD); conditions: read-out: Minimum Inhibitory Concentration (MIC)
Description: as §1, §2, §3

[9] = test system: Corynebacterium jeikeium; assay: MIC test (growth inhibition, 96 well plates, OD); conditions: read-out: Minimum Inhibitory Concentration (MIC)
Description: as §1, §2, §3

[10] = test system: Corynebacterium xerosis; assay: MIC test (growth inhibition, 96 well plates, OD)
Description: as §1, §2, §3

[11] = test system: Staphylococcus hominis; assay: MIC test (growth inhibition, 96 well plates, OD); conditions: read-out: Minimum Inhibitory Concentration (MIC)
Description: as §1, §2, §3

[12] = test system: human sebaceous glands; assay: Sebum production of micro-dissected, cultured human sebaceous glands (lipids/proteins after six days); set-up: sebum reduction: concentration or dose not given beside the values; conditions: for sebum reduction: compared to untreated control, six days, single donor (FIG. 4)
Description: Additional tests were performed with human sebaceous glands in order to verify the modulatory activity of different 1,2-alkanediols and 2,3-alkanediols on sebum secretion. Several microbial species on the skin are lipid dependent and feed on the human sebum (e.g. Corynebacterium, Propionibacterium). Accordingly, sebum reduction can indirectly support the reduction of microorganisms on the skin and in this way also indirectly support e.g. dandruff or acne reduction.
For these experiments sebaceous glands had been micro-dissected and cultured with medium. The medium without any supplement served as untreated control. Medium with 5 μM Capsaicin served as positive control. Additionally, culture medium was supplemented with different concentrations of alkanediols. After six days the sebaceous glands were collected and lipids and proteins quantified. The total lipid amount being representative of sebum production was obtained by normalizing the quantified lipids upon the quantified proteins (i.e. mg of lipids/mg of proteins).

[13] = test system: Pseudomonas aeruginosa (PA); assay: Preservation efficacy test (PET), European Pharmacopoeia 5.1.3
Description: (§4) The preservation efficacy test (PET) was performed in accordance with European Pharmacopoeia § 5.1.3: The test is a reference European Pharmacopoeia method, that is to be used to evaluate the preservation system of a cosmetic or pharmaceutical preparation. The test consists of challenging the preparation under test, with prescribed inoculums of suitable microorganisms. The preservation porperties of the preparation are adequate if, in the conditions of the test, there is a significant fall or no increase, as appropriate, in the number of microorganisms in the inoculated preparations after the time prescribed.
(§5) The test microorganisms which were used, are the following:
(§6) Pseudomonas aeruginosa (PA) (bacterium); Staphylococcus aureus (SA) (bacterium); Escherichia coli (EC) (bacterium); Candida albicans (CA) (yeast); and Aspergillus brasiliensis (AB) (fungus).

[14] = test system: Staphylococcus aureus (SA); assay: as above
Description: as §4, §5, §6

[15] = test system: Candida albicans (CA); assay: as above
Description: as §4, §5, §6

[16] = test system: Aspergillus brasiliensis (AB); assay: as above
Description: as §4, §5, §6

[17] = test system: Escherichia coli (EC); assay: as above
Description: as §4, §5, §6

MIC ([1]; single 1,2-alkanediol, read-out: MIC Component A): 500 µg/mL
MIC [2]: 2500 µg/mL (≈ 15.6 mM)
MIC [3]: 1000 µg/mL (≈ 6.24 mM)
MIC [4]: 1000 µg/mL (≈ 6.24 mM)
MIC [5]: 1000 µg/mL (≈ 6.24 mM)
MIC [6]: 1000 µg/mL (≈ 6.24 mM)
MIC [7]: 1000 µg/mL (≈ 6.24 mM)
MIC [8]: 500 µg/mL (≈ 3.12 mM)
MIC [9]: 2500 µg/mL (≈ 15.6 mM)
MIC [10]: 2500 µg/mL (≈ 15.6 mM)
MIC [11]: 1000 µg/mL (≈ 6.24 mM)
Compound: CCCCCCCC(O)CO (centres unmarked) [1,2-nonanediol]
sebum reduction [12]: 28%
concentration dependency of sebum reduction (in words) ([12]; different donor (FIG. 5)): experimentally confirmed
number of microorganisms after 2 days ([13]; 0.1% in o/w emulsion): 1
number of microorganisms after 7 days ([13]; 0.1% in o/w emulsion): 1
number of microorganisms after 14 days ([13]; 0.1% in o/w emulsion): 1
number of microorganisms after 28 days ([13]; 0.1% in o/w emulsion): 1
number of microorganisms after 2 days ([14]; 0.1% in o/w emulsion): 2,300
number of microorganisms after 7 days ([14]; 0.1% in o/w emulsion): 1
number of microorganisms after 14 days ([14]; 0.1% in o/w emulsion): 1
number of microorganisms after 28 days ([14]; 0.1% in o/w emulsion): 1
number of microorganisms after 2 days ([15]; 0.1% in o/w emulsion): 1,600,000
number of microorganisms after 7 days ([15]; 0.1% in o/w emulsion): 120,000
number of microorganisms after 14 days ([15]; 0.1% in o/w emulsion): 890
number of microorganisms after 28 days ([15]; 0.1% in o/w emulsion): 1
number of microorganisms after 2 days ([16]; 0.1% in o/w emulsion): 2,300,000
number of microorganisms after 7 days ([16]; 0.1% in o/w emulsion): 1,300,000
number of microorganisms after 14 days ([16]; 0.1% in o/w emulsion): 1,200,000
number of microorganisms after 28 days ([16]; 0.1% in o/w emulsion): 900,000
number of microorganisms after 2 days ([17]; 0.1% in o/w emulsion): 6,700
number of microorganisms after 7 days ([17]; 0.1% in o/w emulsion): 1
number of microorganisms after 14 days ([17]; 0.1% in o/w emulsion): 1
number of microorganisms after 28 days ([17]; 0.1% in o/w emulsion): 1

MIC ([1]; single 2,3-alkanediol, read-out: MIC Component B): 1000 µg/mL
MIC [3]: 2500 µg/mL (≈ 15.6 mM)
MIC [6]: 2500 µg/mL (≈ 15.6 mM)
MIC [7]: 2500 µg/mL (≈ 15.6 mM)
MIC [8]: 1000 µg/mL (≈ 6.24 mM)
MIC [9]: 2500 µg/mL (≈ 15.6 mM)
MIC [11]: 5000 µg/mL (≈ 31.2 mM)
Compound: CCCCCCC(O)C(C)O (centres unmarked) [2,3-nonanediol]
sebum reduction [12]: 41%
number of microorganisms after 2 days ([13]; 0.1% in o/w emulsion): 1
number of microorganisms after 7 days ([13]; 0.1% in o/w emulsion): 1
number of microorganisms after 14 days ([13]; 0.1% in o/w emulsion): 1
number of microorganisms after 28 days ([13]; 0.1% in o/w emulsion): 1
number of microorganisms after 2 days ([13]; 0.1% in shampoo): 160,000
number of microorganisms after 7 days ([13]; 0.1% in shampoo): 2,000,000
number of microorganisms after 14 days ([13]; 0.1% in shampoo): 10,000,000
number of microorganisms after 28 days ([13]; 0.1% in shampoo): 8,800,000
number of microorganisms after 2 days ([13]; 0.4% in shampoo): 17,000
number of microorganisms after 7 days ([13]; 0.4% in shampoo): 1
number of microorganisms after 14 days ([13]; 0.4% in shampoo): 1
number of microorganisms after 28 days ([13]; 0.4% in shampoo): 1
number of microorganisms after 2 days ([14]; 0.1% in o/w emulsion): 2,200,000
number of microorganisms after 7 days ([14]; 0.1% in o/w emulsion): 66,000
number of microorganisms after 14 days ([14]; 0.1% in o/w emulsion): 1
number of microorganisms after 28 days ([14]; 0.1% in o/w emulsion): 1
number of microorganisms after 2 days ([14]; 0.1% in shampoo): 31,000
number of microorganisms after 7 days ([14]; 0.1% in shampoo): 200
number of microorganisms after 14 days ([14]; 0.1% in shampoo): 1
number of microorganisms after 28 days ([14]; 0.1% in shampoo): 1
number of microorganisms after 2 days ([14]; 0.4% in shampoo): 1,800
number of microorganisms after 7 days ([14]; 0.4% in shampoo): 1
number of microorganisms after 14 days ([14]; 0.4% in shampoo): 1
number of microorganisms after 28 days ([14]; 0.4% in shampoo): 1
number of microorganisms after 2 days ([15]; 0.1% in o/w emulsion): 2,000,000
number of microorganisms after 7 days ([15]; 0.1% in o/w emulsion): 2,500,000
number of microorganisms after 14 days ([15]; 0.1% in o/w emulsion): 1,900,000
number of microorganisms after 28 days ([15]; 0.1% in o/w emulsion): 970,000
number of microorganisms after 2 days ([15]; 0.1% in shampoo): 110,000
number of microorganisms after 7 days ([15]; 0.1% in shampoo): 29,000
number of microorganisms after 14 days ([15]; 0.1% in shampoo): 870
number of microorganisms after 28 days ([15]; 0.1% in shampoo): 1
number of microorganisms after 2 days ([15]; 0.4% in shampoo): 68,000
number of microorganisms after 7 days ([15]; 0.4% in shampoo): 14,000
number of microorganisms after 14 days ([15]; 0.4% in shampoo): 690
number of microorganisms after 28 days ([15]; 0.4% in shampoo): 1
number of microorganisms after 2 days ([16]; 0.1% in o/w emulsion): 1,200,000
number of microorganisms after 7 days ([16]; 0.1% in o/w emulsion): 1,100,000
number of microorganisms after 14 days ([16]; 0.1% in o/w emulsion): 890,000
number of microorganisms after 28 days ([16]; 0.1% in o/w emulsion): 1,100,000
number of microorganisms after 2 days ([16]; 0.1% in shampoo): 1,800,000
number of microorganisms after 7 days ([16]; 0.1% in shampoo): 2,000,000
number of microorganisms after 14 days ([16]; 0.1% in shampoo): 680,000
number of microorganisms after 28 days ([16]; 0.1% in shampoo): 530,000
number of microorganisms after 2 days ([16]; 0.4% in shampoo): 2,100,000
number of microorganisms after 7 days ([16]; 0.4% in shampoo): 1,800,000
number of microorganisms after 14 days ([16]; 0.4% in shampoo): 1,200,000
number of microorganisms after 28 days ([16]; 0.4% in shampoo): 1,100,000
number of microorganisms after 2 days ([17]; 0.1% in o/w emulsion): 810,000
number of microorganisms after 7 days ([17]; 0.1% in o/w emulsion): 27,000
number of microorganisms after 14 days ([17]; 0.1% in o/w emulsion): 1,100
number of microorganisms after 28 days ([17]; 0.1% in o/w emulsion): 1
number of microorganisms after 2 days ([17]; 0.1% in shampoo): 2,300,000
number of microorganisms after 7 days ([17]; 0.1% in shampoo): 4,200,000
number of microorganisms after 14 days ([17]; 0.1% in shampoo): 1,800,000
number of microorganisms after 28 days ([17]; 0.1% in shampoo): 1,100,000
number of microorganisms after 2 days ([17]; 0.4% in shampoo): 3,200,000
number of microorganisms after 7 days ([17]; 0.4% in shampoo): 4,200,000
number of microorganisms after 14 days ([17]; 0.4% in shampoo): 1,300,000
number of microorganisms after 28 days ([17]; 0.4% in shampoo): 1,400,000
